Experimental data published in patent US11547697B2, “Heterocyclic compounds and uses thereof” (MILLENNIUM PHARMACEUTICALS, INC., priority 2009, dated 2023).
Read-outs that look alike come from different tables or passages of the source.

Assays:
HCT116 cells = assay: Cell arrest assay, alone and in combination with MEK inhibitor; assay type: cell-based, human; settings: 3 μM compound 54 or 0.3 μM PD0325901, 20 hours
Protocol: Cells are then incubated in the presence of DMSO or inhibitor for 20 hours. The number of cells at each stage in the cell cycle is determined and expressed as a percent of the total, with an increase in the number of cells arrested at pre-GO/G1 indicating effective inhibition of cell cycle progression.

[1] = tested on: lupus disease model mice (R2KO, BXSB or MLR/lpr); settings: B6.Sle1z.Sle3z model (T. Wu et al.); cited from earlier work
[2] = 5 μM, PBS pH 7.4, 37° C., 24 hours; cited from earlier work
p110γ = p110γ (Homo sapiens (Human), UniProt P48736); assay: PI 3-Kinase (human) HTRF assay, p110γ; assay type: biochemical; settings: read-out: PI3K γ IC50
p110α/p85α = p110α/p85α (Homo sapiens (Human), UniProt P42336); assay: PI 3-Kinase (human) HTRF assay, p110α/p85α; assay type: biochemical; settings: read-out: PI3K α IC50
[3] = tested on: Human tumor cell lines (e.g., MCF7, U-87 MG, MDA-MB-468, PC-3); assay: Tumor cell line proliferation assay (Alamar Blue); assay type: cell-based; settings: PC3 cells
Protocol: The ability of one or more subject compounds to inhibit tumor cell line proliferation is determined according to standard procedures known in the art. For instance, an in vitro cellular proliferation assay can be performed to measure the metabolic activity of live cells. The assay is performed in a 96 well microtiter plate using Alamar Blue reduction. Human tumor cell lines are obtained from ATCC (e.g., MCF7, U-87 MG, MDA-MB-468, PC-3), grown to confluency in T75 flasks, trypsinized with 0.25% trypsin, washed one time with Tumor Cell Media (DMEM+10% FBS), and plated in 90 ul at 5,000 cells/well in Tumor Cell Media. A compound disclosed herein is diluted in Tumor Cell Media and added in a 10 ul volume. Plates are incubated for 72 hours at 37 C and 5% CO2. A volume of 10 uL of Alamar Blue reagent is added to each well and plates are incubated for 3 hours at 37 C and 5% CO2. Alamar Blue fluoresce is read at 560Ex/590Em, and IC50 values are calculated using GraphPad Prism 5.

recombinant mTOR = recombinant mTOR (Homo sapiens (Human), UniProt P42345); assay: mTOR inhibition assay (radiometric or LanthaScreen TR-FRET); assay type: biochemical; settings: read-out: MTORC IC50
p110β/p85α = p110β/p85α (Homo sapiens (Human), UniProt P42338); assay: PI 3-Kinase (human) HTRF assay, p110β/p85α; assay type: biochemical; settings: read-out: PI3K β IC50
p110δ/p85α = p110δ/p85α (Homo sapiens (Human), UniProt O00329); assay: PI 3-Kinase (human) HTRF assay, p110δ/p85α; assay type: biochemical; settings: read-out: PI3K δ IC50
[4] = tested on: tumor cells with a PI3Kα mutation (e.g., MDA-MB-361 and T47D); assay: Proliferation of tumor cells with PI3Kα mutation; assay type: cell-based; settings: Homo sapiens, T47D cells
[5] = tested on: p190 transduced leukemic cells; settings: about 70 mg/kg twice daily, p190 model; cited from earlier work
[6] = 5 μM, human plasma, 37° C.; cited from earlier work
[7] = tested on: PI3K/Akt/mTor signaling in blood cells; assay: Kinase signaling in blood (phosflow); assay type: cell-based; settings: splenocytes or peripheral blood mononuclear cells, anti-CD3 stimulation
Protocol: PI3K/Akt/mTor signaling is measured in blood cells using the phosflow method (Methods Enzymol. 2007; 434:131-54). The advantage of this method is that it is by nature a single cell assay so that cellular heterogeneity can be detected rather than population averages. This allows concurrent distinction of signaling states in different populations defined by other markers. Phosflow is also highly quantitative. To test the effects of one or more compounds disclosed herein, unfractionated splenocytes, or peripheral blood mononuclear cells are stimulated with anti-CD3 to initiate T-cell receptor signaling. The cells are then fixed and stained for surface markers and intracellular phosphoproteins.
Similarly, aliquots of whole blood are incubated for 15 minutes with vehicle (e.g., 0.1% DMSO) or kinase inhibitors at various concentrations, before addition of stimuli to crosslink the T cell receptor (TCR) (anti-CD3 with secondary antibody) or the B cell receptor (BCR) using anti-kappa light chain antibody (Fab′2 fragments). After approximately 5 and 15 minutes, samples are fixed (e.g., with cold 4% paraformaldehyde) and used for phosflow. […] The level of phosphrylation of kinase substrates such as Akt and S6 are then measured by incubating the fixed cells with labeled antibodies specific to the phosphorylated isoforms of these proteins. The population of cells is then analyzed by flow cytometry.

[8] = read-out: PC3 proliferation (nM)*
[9] = read-out: T47D proliferation IC50
[10] = read-out: PC3 proliferation IC50

p110β/p85α, sequence (P42338 whole entry): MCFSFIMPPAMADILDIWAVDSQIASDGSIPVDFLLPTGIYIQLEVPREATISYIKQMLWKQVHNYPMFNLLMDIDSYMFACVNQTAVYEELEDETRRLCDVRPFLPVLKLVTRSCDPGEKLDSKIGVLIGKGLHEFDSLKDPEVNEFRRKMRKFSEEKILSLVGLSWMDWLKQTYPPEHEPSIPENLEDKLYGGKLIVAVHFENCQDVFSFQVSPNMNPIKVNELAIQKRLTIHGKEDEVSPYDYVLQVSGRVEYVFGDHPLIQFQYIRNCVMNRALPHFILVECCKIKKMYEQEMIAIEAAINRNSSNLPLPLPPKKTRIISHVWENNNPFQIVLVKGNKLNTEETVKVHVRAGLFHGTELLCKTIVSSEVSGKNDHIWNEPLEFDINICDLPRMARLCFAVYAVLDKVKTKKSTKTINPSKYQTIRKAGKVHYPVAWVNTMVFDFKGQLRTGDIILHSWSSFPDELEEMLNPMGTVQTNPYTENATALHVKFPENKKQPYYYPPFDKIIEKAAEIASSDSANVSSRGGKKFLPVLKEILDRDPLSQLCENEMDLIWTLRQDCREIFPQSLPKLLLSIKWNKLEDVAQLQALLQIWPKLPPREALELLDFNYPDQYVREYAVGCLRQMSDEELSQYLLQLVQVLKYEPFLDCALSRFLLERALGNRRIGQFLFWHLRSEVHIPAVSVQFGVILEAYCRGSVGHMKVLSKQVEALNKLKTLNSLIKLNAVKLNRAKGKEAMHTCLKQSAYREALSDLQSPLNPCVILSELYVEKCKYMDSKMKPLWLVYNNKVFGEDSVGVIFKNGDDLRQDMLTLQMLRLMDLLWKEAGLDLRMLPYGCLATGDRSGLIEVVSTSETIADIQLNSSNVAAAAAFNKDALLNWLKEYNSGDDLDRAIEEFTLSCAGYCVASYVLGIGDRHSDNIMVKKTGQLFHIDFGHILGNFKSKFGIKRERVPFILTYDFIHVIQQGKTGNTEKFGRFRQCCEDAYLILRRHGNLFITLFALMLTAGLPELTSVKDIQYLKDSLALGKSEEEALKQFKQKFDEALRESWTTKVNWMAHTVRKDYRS
p110β/p85α, sequence (P27986 whole entry partner): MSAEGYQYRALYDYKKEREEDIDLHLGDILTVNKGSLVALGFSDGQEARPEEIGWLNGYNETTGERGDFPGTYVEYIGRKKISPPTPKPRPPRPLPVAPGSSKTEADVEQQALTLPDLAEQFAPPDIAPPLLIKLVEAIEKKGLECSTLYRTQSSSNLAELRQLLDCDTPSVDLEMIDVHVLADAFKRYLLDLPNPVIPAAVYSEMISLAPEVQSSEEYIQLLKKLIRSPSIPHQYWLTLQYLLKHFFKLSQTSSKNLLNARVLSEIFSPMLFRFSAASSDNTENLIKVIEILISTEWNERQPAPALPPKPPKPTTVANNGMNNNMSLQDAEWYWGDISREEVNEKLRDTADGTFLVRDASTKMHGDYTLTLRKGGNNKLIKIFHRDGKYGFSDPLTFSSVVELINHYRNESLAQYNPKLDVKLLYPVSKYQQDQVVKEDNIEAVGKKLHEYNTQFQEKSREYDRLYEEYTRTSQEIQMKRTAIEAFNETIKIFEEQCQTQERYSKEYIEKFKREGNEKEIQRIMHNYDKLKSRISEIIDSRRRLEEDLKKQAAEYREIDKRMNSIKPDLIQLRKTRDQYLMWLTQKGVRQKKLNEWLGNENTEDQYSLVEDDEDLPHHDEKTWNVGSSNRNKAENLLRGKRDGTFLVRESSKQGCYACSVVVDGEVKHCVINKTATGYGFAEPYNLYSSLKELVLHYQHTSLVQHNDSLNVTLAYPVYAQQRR
p110γ, sequence (P48736 whole entry): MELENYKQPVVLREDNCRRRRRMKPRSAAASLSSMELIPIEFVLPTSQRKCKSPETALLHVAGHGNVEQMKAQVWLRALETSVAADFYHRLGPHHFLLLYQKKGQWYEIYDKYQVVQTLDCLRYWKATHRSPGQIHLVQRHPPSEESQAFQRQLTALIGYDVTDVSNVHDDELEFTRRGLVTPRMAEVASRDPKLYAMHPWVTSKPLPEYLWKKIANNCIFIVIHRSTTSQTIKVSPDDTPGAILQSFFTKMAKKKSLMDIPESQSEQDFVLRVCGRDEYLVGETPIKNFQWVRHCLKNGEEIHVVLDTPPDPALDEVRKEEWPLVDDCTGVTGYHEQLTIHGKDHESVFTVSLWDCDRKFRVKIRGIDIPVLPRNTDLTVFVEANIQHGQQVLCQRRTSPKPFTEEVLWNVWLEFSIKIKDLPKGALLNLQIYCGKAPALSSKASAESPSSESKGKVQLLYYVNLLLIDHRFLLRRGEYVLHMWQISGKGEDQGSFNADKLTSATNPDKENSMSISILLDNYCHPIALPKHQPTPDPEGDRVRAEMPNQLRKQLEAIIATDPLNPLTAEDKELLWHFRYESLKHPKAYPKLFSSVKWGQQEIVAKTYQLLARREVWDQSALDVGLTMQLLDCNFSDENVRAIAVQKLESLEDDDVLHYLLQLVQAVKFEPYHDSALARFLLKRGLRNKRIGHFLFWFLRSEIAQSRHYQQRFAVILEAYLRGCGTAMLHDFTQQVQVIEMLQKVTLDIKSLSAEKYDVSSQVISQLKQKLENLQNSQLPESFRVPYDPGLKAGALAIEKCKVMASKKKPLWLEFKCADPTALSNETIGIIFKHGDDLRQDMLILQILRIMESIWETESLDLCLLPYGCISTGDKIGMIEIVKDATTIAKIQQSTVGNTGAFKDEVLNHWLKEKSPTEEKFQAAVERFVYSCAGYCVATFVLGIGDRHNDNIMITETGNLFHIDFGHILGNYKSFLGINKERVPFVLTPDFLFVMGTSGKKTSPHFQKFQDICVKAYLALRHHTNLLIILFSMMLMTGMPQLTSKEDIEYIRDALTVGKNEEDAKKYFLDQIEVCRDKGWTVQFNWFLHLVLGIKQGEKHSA
p110α/p85α, sequence (P42336 whole entry): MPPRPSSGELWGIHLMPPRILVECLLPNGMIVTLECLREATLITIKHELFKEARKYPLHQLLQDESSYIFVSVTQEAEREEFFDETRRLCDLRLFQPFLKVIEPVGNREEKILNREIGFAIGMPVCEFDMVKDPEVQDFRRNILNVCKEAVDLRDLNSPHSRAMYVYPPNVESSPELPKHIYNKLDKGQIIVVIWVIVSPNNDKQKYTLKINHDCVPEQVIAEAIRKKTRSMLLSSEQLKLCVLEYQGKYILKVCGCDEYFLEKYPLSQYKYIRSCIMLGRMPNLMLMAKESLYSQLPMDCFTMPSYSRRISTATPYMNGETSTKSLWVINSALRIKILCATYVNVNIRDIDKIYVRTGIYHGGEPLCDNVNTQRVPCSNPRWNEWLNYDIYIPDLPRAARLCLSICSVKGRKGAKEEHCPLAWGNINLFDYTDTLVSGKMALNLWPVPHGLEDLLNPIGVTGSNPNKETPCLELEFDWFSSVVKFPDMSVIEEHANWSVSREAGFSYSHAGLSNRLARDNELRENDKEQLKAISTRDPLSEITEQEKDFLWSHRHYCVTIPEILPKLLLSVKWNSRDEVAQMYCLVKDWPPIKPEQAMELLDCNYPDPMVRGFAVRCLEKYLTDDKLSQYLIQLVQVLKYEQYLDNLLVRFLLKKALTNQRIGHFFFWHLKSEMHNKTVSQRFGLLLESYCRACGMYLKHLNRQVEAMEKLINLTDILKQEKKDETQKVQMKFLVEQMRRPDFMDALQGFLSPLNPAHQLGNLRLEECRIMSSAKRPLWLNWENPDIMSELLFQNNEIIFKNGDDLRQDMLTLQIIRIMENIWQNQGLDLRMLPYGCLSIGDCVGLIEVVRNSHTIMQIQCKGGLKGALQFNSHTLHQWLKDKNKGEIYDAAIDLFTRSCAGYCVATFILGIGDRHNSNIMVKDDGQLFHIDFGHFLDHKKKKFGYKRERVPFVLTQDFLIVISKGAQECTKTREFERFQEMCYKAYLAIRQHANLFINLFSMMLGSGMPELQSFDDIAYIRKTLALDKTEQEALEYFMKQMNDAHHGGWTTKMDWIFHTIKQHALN
p110α/p85α, sequence (P27986 whole entry partner): as the sequence (P27986 whole entry partner) above
p110δ/p85α, sequence (O00329 whole entry): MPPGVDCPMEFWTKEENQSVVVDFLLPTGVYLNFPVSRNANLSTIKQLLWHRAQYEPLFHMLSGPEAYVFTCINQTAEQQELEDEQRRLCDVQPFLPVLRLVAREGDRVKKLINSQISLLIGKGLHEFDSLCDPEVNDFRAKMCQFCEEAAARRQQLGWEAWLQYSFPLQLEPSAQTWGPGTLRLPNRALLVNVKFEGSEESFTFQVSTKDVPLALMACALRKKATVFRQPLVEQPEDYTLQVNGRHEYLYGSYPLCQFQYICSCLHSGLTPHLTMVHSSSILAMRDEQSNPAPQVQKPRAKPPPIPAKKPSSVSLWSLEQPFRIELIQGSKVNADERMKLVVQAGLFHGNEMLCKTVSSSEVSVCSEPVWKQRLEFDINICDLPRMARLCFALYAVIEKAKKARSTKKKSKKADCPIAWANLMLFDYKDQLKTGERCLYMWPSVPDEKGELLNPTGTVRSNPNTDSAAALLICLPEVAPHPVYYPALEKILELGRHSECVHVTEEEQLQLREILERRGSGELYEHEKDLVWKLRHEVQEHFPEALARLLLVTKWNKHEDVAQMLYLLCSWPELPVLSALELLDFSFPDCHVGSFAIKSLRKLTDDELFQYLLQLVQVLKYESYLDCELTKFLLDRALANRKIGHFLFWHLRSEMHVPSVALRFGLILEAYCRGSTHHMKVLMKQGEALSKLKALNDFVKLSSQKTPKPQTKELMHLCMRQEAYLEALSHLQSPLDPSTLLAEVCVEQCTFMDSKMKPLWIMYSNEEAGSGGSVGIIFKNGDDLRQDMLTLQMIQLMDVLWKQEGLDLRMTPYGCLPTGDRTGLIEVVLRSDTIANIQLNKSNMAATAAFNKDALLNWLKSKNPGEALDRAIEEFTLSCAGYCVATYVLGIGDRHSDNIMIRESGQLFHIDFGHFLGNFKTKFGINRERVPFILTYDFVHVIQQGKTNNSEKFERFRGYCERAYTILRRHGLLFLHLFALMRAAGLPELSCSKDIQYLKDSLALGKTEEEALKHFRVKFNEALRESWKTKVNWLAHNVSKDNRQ
p110δ/p85α, sequence (P27986 whole entry partner): as the sequence (P27986 whole entry partner) above

| Structure (SMILES) | IC50 (p110γ) | IC50 (p110α/p85α) | IC50 [3, 8] | IC50 (recombinant mTOR) | IC50 (p110β/p85α) | IC50 (p110δ/p85α) | also measured |
| --- | --- | --- | --- | --- | --- | --- | --- |
| O=C(NOC[C@H](O)CO)c1ccc(F)c(F)c1Nc1ccc(I)cc1F [PD0325901, reference compound] |  |  |  |  |  |  | Cell cycle arrest, single inhibitor versus DMSO control (HCT116 cells): some increase in cell cycle arrest by comparison to DMSO control |
| CO[C@H]1C[C@@H]2CC[C@@H](C)[C@@](O)(O2)C(=O)C(=O)N2CCCC[C@H]2C(=O)O[C@H]([C@H](C)C[C@@H]2CC[C@@H](OCCO)[C@H](OC)C2)CC(=O)[C@H](C)/C=C(\C)[C@@H](O)[C@@H](OC)C(=O)[C@H](C)C[C@H](C)/C=C/C=C/C=C/1C [RAD001] |  |  |  |  |  |  | Effect on lupus symptoms [1]: ameliorate lupus symptoms |
| O=C(O)CCCc1ccc(N(CCCl)CCCl)cc1 [chlorambucil, 4-[bis(2-chloroethyl)amino]benzenebutanoic acid] |  |  |  |  |  |  | Chemical stability of reference compound [2]: largely hydrolyzed over the course of 24 hours |
| CC(=O)Nc1nc2ccc(-c3ccc4nccc(-c5ccncc5)c4c3)cc2s1 [compound 2] | < 1000 nM | < 1000 nM | < 10000 nM |  |  |  |  |
| Nc1nc2ccc(-c3ccc4nccc(-c5ccncc5)c4c3)cc2o1 [compound 4] | < 100 nM | < 100 nM | < 100 nM | < 1000 nM | < 100 nM | < 100 nM |  |
| Nc1nc2cc(-c3ccc4ncc(-c5ccncc5)n4c3)ccc2o1 [compound 6] | < 100 nM | < 100 nM | < 10000 nM | < 10000 nM | < 10000 nM | < 1000 nM | IC50 ([4]; read-out: T47D proliferation): < 1000 nM |
| Cn1c(=O)n(-c2ccc(C(C)(C)C#N)cc2)c2c3cc(-c4ccc5oc(N)nc5c4)ccc3ncc21 [compound 7] | < 100 nM | < 100 nM | < 100 nM | < 100 nM | < 100 nM | < 100 nM |  |
| Nc1nc2cc(-c3ccc4ncc(-c5ccncc5)n4n3)ccc2o1 [compound 10] | < 100 nM | < 100 nM | < 1000 nM | < 1000 nM | < 1000 nM |  | IC50 ([4]; read-out: T47D proliferation): < 1000 nM |
| CS(=O)(=O)N1CCN(Cc2cc3nc(-c4ccc5oc(N)nc5c4)nc(N4CCOCC4)c3s2)CC1 [compound 129] | < 100 nM | < 100 nM | < 1000 nM | < 1000 nM | < 1000 nM | < 1000 nM |  |
| CN1CCC(N(C)C(=O)c2cnc3ccc(-c4ccc5oc(N)nc5c4)cn23)CC1 [compound 165] |  | < 1000 nM | < 1000 nM |  | < 10000 nM | < 10000 nM |  |
| CC(=O)Nc1nc2ccc(-c3ccc4oc(N)nc4c3)cc2s1 [compound 231] |  |  |  |  |  |  | IC50 (p110γ; in vitro): < 100 nM; IC50 (recombinant mTOR; in vitro): < 10000 nM; IC50 (p110α/p85α; in vitro): < 100 nM; IC50 [4, 9]: < 1000 nM; IC50 (p110β/p85α; in vitro): < 1000 nM; IC50 (p110δ/p85α; in vitro): < 100 nM; IC50 [3, 10]: < 10000 nM |
| CC(=O)Nc1cn2cc(-c3ccc4oc(N)nc4c3)ccc2n1 [compound 234] |  |  |  |  |  |  | IC50 (p110γ; in vitro): < 100 nM; IC50 (recombinant mTOR; in vitro): < 1000 nM; IC50 (p110α/p85α; in vitro): < 100 nM; IC50 [4, 9]: < 1000 nM; IC50 (p110β/p85α; in vitro): < 1000 nM; IC50 (p110δ/p85α; in vitro): < 100 nM; IC50 [3, 10]: < 100 nM |
| Cc1ccc(NC(=O)c2ccc(CN3CCN(C)CC3)cc2)cc1Nc1nccc(-c2cccnc2)n1 [imatinib] |  |  |  |  |  |  | Effect on leukemogenesis [5]: delay but not cure leukemogenesis |
| CC(C)[N+](C)(CCOC(=O)C1c2ccccc2Oc2ccccc21)C(C)C [propantheline] |  |  |  |  |  |  | Plasma stability of control compounds [6]: intermediate plasma stability |
| CCCOc1cc(N)ccc1C(=O)OCCN(CC)CC [propoxycaine] |  |  |  |  |  |  | Plasma stability of control compounds [6]: low plasma stability |
| CO[C@H]1C[C@@H]2CC[C@@H](C)[C@@](O)(O2)C(=O)C(=O)N2CCCC[C@H]2C(=O)O[C@H]([C@H](C)C[C@@H]2CC[C@@H](O)[C@H](OC)C2)CC(=O)[C@H](C)/C=C(\C)[C@@H](O)[C@@H](OC)C(=O)[C@H](C)C[C@H](C)/C=C/C=C/C=C/1C [rapamycin] |  |  |  |  |  |  | anti-CD3 mediated Akt -S473 phosphorylation [7]: enhances Akt phosphorylation; anti-CD3 mediated S6 phosphorylation [7]: inhibits S6 phosphorylation |
